# Data published in patent US20040191763A1, “HBV mutations associated with reduced susceptibility to adefovir” (priority 2002, published 2004).
# Read-outs that look alike come from different tables or passages of the source.
# Tests used:
# serum HBV DNA [1] = assay: Phase 3 clinical study GS-98-438, HBeAg negative chronic hepatitis B patients; format: in vivo, human
# Experimental: The median serum HBV DNA levels declined by 3.5 and 3.9 log10 copies/mL from baseline to week 48 in the ADV 10 mg dose groups in HBeAg positive (Study GS-98-437) and in HBeAg negative (Study GS-98-438) chronic hepatitis B patients, respectively.
# Adefovir resistance surveillance was performed in a blinded manner in HBeAg negative chronic hepatitis B patients treated for 96 weeks in a Phase 3 double-blind, randomized, placebo-controlled clinical study (GS-98-438) of adefovir dipivoxil 10 mg (ADV). The analysis included 79 patients who received ADV 10 mg daily for the first 48 weeks and were randomized to also receive ADV 10 mg during the second 48 weeks.
# The reverse transcriptase (RT) domain of the HBV polymerase gene (rt1 to rt344) was sequenced for HBV DNA extracted from baseline and week 96 serum samples (or the last on-study sample) for the 79 patients treated continuously with ADV for 96 weeks if the samples had detectable serum HBV DNA (≧1000 copies/mL by Roche Amplicor™ PCR assay) at the time points tested.
# Study GS-98-438 is a randomized, double-blind, placebo-controlled Phase 3 clinical study of the safety and efficacy of ADV for the treatment of patients with HBeAg negative/anti-HBe positive/HBV DNA positive chronic hepatitis B. A total of 184 patients received at least one dose of study medication during the first 48 weeks (n=61 and 123 for the placebo and ADV 10 mg groups, respectively). During the second 48 weeks, all placebo patients switched to ADV 10 mg daily while the ADV-treated patients were re-randomized to either continue ADV or receive placebo at a 2:1 ratio. Accordingly, all patients who received at least one dose of study drug during the second 48 weeks are classified into three groups: PLB-ADV (n=60), ADV-ADV (n=79), and ADV-PLB (n=40).
# A virology substudy of Study GS-98-438 included all patients in the ADV 10 mg-ADV 10 mg group (n=79). The RT domain of the HBV polymerase gene from banked serum samples from these patients was genotypically analyzed at baseline, and either at week 96, or upon early termination during the second 48 weeks.
# If the week 96 serum HBV DNA value was not available for a patient, the closest serum HBV DNA value prior to week 96 was used. All week 96 and the last on-drug samples are referred to as week 96 samples hereafter. Note that Roche Molecular Systems raised the lower limit of quantification of the HBV DNA PCR assay from 400 copies/mL to 1,000 copies/mL after Gilead completed the week 48 analyses for study 438.
# serum HBV DNA [2] = conditions: ADV 10 mg daily, HBeAg positive patients; cited from earlier work
# serum HBV DNA [3] = conditions: ADV 10 mg daily, HBeAg negative patients; cited from earlier work
# [4] = test system: wild-type HBV (baseline patient-derived clones); assay: Whole HBV genome cell culture drug susceptibility assay, baseline wild-type patient-derived clones; format: cell-based, hepatitis B virus
# rtN236T mutant HBV = assay: Whole HBV genome cell culture drug susceptibility assay, rtN236T patient-derived clones; format: cell-based, hepatitis B virus; conditions: for IC50 Fold Change (Week96/Baseline): adefovir; for susceptibility of the rtN236T mutant (in words): in vitro
# rtA181V mutant HBV = assay: Whole HBV genome cell culture drug susceptibility assay, rtA181V patient-derived clones; format: cell-based, hepatitis B virus; conditions: for IC50: Hepatitis B virus, HepG2, 168 h, HepG2, 7 days; for IC50 Fold Change (Week96/Baseline): adefovir
# Text: . The rtA181V mutation appears to confer a low degree of reduced susceptibility to adefovir relative to the adefovir-resistant rtN236T mutation (7- to 14-fold resistance to adefovir in vitro). […] In contrast, serum HBV DNA in the other patient (0624-1517) remained suppressed below 1000 copies/mL after a period of treatment interruption during which this mutation was detected (FIG. 2). […] The clinical significance of the rtA181V mutation is unclear based on the in vitro drug susceptibility data and the disparate clinical profiles of the two patients, although as noted it would have diagnostic utility for HBV infection.
# [5] = test system: rtN236T+rtA181T double mutant HBV; assay: Adefovir susceptibility of rtN236T+rtA181T double mutant made by site-directed mutagenesis of patient-derived clone; format: cell-based, hepatitis B virus
# Text: (§1) One patient (0454-2506) with the rtN236T mutation also developed a second conserved site mutation rtA181T at week 96. However, all week 96 isolates derived from the patient encoding both rtN236T and rtA181T were replication deficient in vitro; the reason for this is unclear. To assess the adefovir sensitivity of HBV containing both rtN236T and rtA181Tmutations, an artificial construct was obtained by modifying an existing patient-derived HBV clone. The rtA181T mutation was introduced by site-directed mutagenesis into replicating HBV clones from patient 0454-2506 that already encoded rtN236T. The resulting double mutants were replication competent and were used for adefovir susceptibility testing. […] The rtA181T mutation was also introduced into a standard HBV lab strain (genotyped, ayw) to assess the individual contribution of the rtA181T mutation.
# [6] = test system: wild-type lab HBV strain (ayw); assay: Adefovir susceptibility of standard HBV lab strain, wild-type; format: cell-based, hepatitis B virus
# Text: as §1
# [7] = test system: rtA181T mutant lab HBV strain (ayw); assay: Adefovir susceptibility of standard HBV lab strain carrying rtA181T; format: cell-based, hepatitis B virus
# Text: as §1
# [8] = test system: rtK241E+rtK318Q mutant HBV; assay: Whole HBV genome cell culture drug susceptibility assay, rtK241E+rtK318Q patient-derived clones; conditions: adefovir, patient 0370-3503, rtK241E + rtK318Q
# Experimental: Drug susceptibility of patient-derived clones was analyzed by transient transfection into HepG2 cells.
# To investigate if these conserved site mutations conferred resistance to adefovir, adefovir susceptibility of HBV isolates derived from the above five patients was evaluated using a whole HBV genome cell culture assay as described above.
# [9] = target: recombinant HBV polymerase (Hepatitis B virus genotype D subtype ayw, UniProt P03156); conditions: competitive with respect to dATP; read-out: inhibition constant (Ki); cited from earlier work
# Sequence of recombinant HBV polymerase (P03156 whole entry): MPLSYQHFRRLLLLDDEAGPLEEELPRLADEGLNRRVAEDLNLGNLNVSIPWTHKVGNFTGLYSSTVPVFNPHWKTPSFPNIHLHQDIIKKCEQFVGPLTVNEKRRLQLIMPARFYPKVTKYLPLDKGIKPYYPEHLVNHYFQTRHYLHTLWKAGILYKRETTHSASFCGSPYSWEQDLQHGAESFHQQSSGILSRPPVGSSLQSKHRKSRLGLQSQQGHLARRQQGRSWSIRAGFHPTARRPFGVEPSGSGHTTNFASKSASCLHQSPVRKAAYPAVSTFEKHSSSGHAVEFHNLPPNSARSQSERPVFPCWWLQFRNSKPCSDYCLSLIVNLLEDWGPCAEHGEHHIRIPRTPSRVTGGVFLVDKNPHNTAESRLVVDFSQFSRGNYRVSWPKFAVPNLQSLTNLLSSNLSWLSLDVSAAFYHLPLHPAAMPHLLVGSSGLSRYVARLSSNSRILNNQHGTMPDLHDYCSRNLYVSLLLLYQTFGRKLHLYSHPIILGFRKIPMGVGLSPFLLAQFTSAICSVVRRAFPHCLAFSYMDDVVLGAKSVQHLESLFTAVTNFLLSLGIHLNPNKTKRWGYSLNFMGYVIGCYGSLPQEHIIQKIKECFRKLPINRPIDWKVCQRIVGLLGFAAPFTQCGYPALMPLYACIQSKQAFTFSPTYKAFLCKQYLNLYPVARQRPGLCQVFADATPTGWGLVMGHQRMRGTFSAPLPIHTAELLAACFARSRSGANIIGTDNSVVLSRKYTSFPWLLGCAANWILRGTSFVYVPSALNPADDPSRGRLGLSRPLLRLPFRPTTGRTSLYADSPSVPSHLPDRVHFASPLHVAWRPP
# [10] = Hepatitis B virus, read-out: IC50 Wild-type, patient-derived HBV strain, wild-type (Table 7)
# [11] = Hepatitis B virus, read-out: IC50 rtN23T Mutant, patient-derived HBV strain carrying rtN236T (Table 7)
# [12] = patient-derived HBV strain carrying rtN236T (Table 7)
# [13] = patient-derived HBV strain, wild-type (Table 7), read-out: IC50 Wild-type
# [14] = patient-derived HBV strain carrying rtN236T (Table 7), read-out: IC50 rtN23T Mutant
structure (smiles),measurement,setting,value
"CC(C)(C)C(=O)OCOP(=O)(COCCn1cnc2c(N)ncnc21)OCOC(=O)C(C)(C)C [ADV, adefovir dipivoxil]",serum HBV reduction from baseline after initiation of therapy,"serum HBV DNA [1]; both patients who developed rtN236T (0626-1537, 0454-2506)",less than 2 log10 copies/mL
same,patients with serum HBV DNA levels <1000 copies/mL at week 96 (or last on-study visit),"serum HBV DNA [1]; of 79 patients, ADV 10 mg daily for 96 weeks",58 patients
same,reduction in serum HBV DNA,"serum HBV DNA [1]; patient 0370-3503 (rtK241E+rtK318Q), week 96",> 5 log10
same,serum HBV DNA,"serum HBV DNA [1]; patient 0370-3503, week 96",3.1 log10 copies/mL
same,serum HBV DNA,"serum HBV DNA [1]; patient 0370-3503, week 156",3.6 log10 copies/mL
same,median serum HBV DNA decline from baseline to week 48,serum HBV DNA [2],3.5 log10 copies/mL
same,median serum HBV DNA decline from baseline to week 48,serum HBV DNA [3],3.9 log10 copies/mL
"Nc1ncnc2c1ncn2CCOCP(=O)(O)O [Adefovir, adefovir]",IC50,"[4]; Hepatitis B virus, HepG2, 168 h, read-out: Adefovir IC50 Baseline, patient 0370-3503, baseline clones, HepG2, 7 days",160 ± 10 nM
same,IC50,"[4]; Hepatitis B virus, HepG2, 168 h, read-out: Adefovir IC50 Baseline, patient 0454-2506, baseline wild-type clones, HepG2, 7 days",210 ± 10 nM
same,IC50,"[4]; Hepatitis B virus, HepG2, 168 h, read-out: Adefovir IC50 Baseline, patient 0624-1517, baseline clones, HepG2, 7 days",210 ± 70 nM
same,IC50,"[4]; Hepatitis B virus, HepG2, 168 h, read-out: Adefovir IC50 Baseline, patient 0624-1564, baseline clones, HepG2, 7 days",210 ± 10 nM
same,IC50,"[4]; Hepatitis B virus, HepG2, 168 h, read-out: Adefovir IC50 Baseline, patient 0626-1537, baseline clones, HepG2 transient transfection, 7 days",260 ± 170 nM
same,IC50,[4]; [10],150 nM
same,IC50 Fold Change from Wild-Type,"[4]; adefovir, patient 0454-2506 wild-type (baseline), reference",1 fold
same,IC50,"rtN236T mutant HBV; Hepatitis B virus, HepG2, 168 h, read-out: Adefovir IC50 Week 96, patient 0454-2506, week 96 clones with single rtN236T, HepG2, 7 days",1550 ± 910 nM
same,IC50,"rtN236T mutant HBV; Hepatitis B virus, HepG2, 168 h, read-out: Adefovir IC50 Week 96, patient 0626-1537, week 96 rtN236T clones, HepG2, 7 days",3640 ± 2780 nM
same,IC50,rtN236T mutant HBV; [11],1470 nM
same,IC50 Fold Change (Week96/Baseline),"rtN236T mutant HBV; patient 0454-2506, single rtN236T",7.3 fold
same,IC50 Fold Change (Week96/Baseline),"rtN236T mutant HBV; patient 0626-1537, rtN236T",13.8 fold
same,IC50 Fold Change (rtN236T/Wild-type),rtN236T mutant HBV; [12],9.6 fold
same,IC50,"rtA181V mutant HBV; read-out: Adefovir IC50 Week 96, patient 0624-1517, week 96 rtA181V clones",520 ± 110 nM
same,IC50,"rtA181V mutant HBV; read-out: Adefovir IC50 Week 96, patient 0624-1564, week 96 rtA181V clones",620 ± 290 nM
same,IC50 Fold Change (Week96/Baseline),"rtA181V mutant HBV; patient 0624-1517, rtA181V",2.5 fold
same,IC50 Fold Change (Week96/Baseline),"rtA181V mutant HBV; patient 0624-1564, rtA181V",3.0 fold
same,IC50,"[5]; Hepatitis B virus, patient 0454-2506 derived clone, rtN236T + rtA181T (rtA181T introduced by site-directed mutagenesis)",530 ± 260 nM
same,IC50 Fold Change from Wild-Type,"[5]; adefovir, patient 0454-2506 derived, rtN236T + rtA181T",2.5 fold
same,IC50,"[6]; Hepatitis B virus, lab HBV strain, wild-type",190 ± 30 nM
same,IC50 Fold Change from Wild-Type,"[6]; adefovir, lab HBV strain wild-type, reference",1 fold
same,IC50,[7]; Hepatitis B virus,240 ± 30 nM
same,IC50 Fold Change from Wild-Type,[7]; adefovir,1.3 fold
same,IC50 Fold Change (Week96/Baseline),[8],0.9 fold
same,IC50 Fold Change (Week96/Baseline),[8]; listed as adefovir,less than 0.9 fold
"C=C1[C@H](CO)[C@@H](O)C[C@@H]1n1cnc2c(=O)[nH]c(N)nc21 [Entecavir, entecavir]",IC50,[4]; [10],0.39 nM
same,IC50,rtN236T mutant HBV; [11],0.26 nM
same,susceptibility of the rtN236T mutant (in words),rtN236T mutant HBV,remained susceptible
same,IC50 Fold Change (rtN236T/Wild-type),rtN236T mutant HBV; [12],0.67 fold
Cc1cn([C@@H]2C[C@@H](O)[C@H](CO)O2)c(=O)[nH]c1=O [L-dT],IC50,[4]; [13],140 nM
same,susceptibility of the rtN236T mutant (in words),rtN236T mutant HBV,remained susceptible
same,IC50 Fold Change (rtN236T/Wild-type),rtN236T mutant HBV; [12],2.4 fold
same,IC50,rtN236T mutant HBV; [14],330 nM
"Nc1ccn([C@@H]2CS[C@H](CO)O2)c(=O)n1 [Lamivudine, lamivudine]",IC50,rtN236T mutant HBV; [11],70 nM
same,IC50,"rtN236T mutant HBV; Hepatitis B virus, read-out: Lamivudine IC50 Week 96, patient 0454-2506, week 96 clones with single rtN236T",70 nM
same,lamivudine IC50 change,rtN236T mutant HBV; rtN236T mutant in vitro,≤ 3.5 fold
COc1ccc(Sc2nc(N)nc3c2ncn3CCOCP(=O)(OCC(F)(F)F)OCC(F)(F)F)cc1 [MCC-478],IC50,[4]; [10],30 nM
same,IC50,rtN236T mutant HBV; [11],250 nM
same,IC50 Fold Change (rtN236T/Wild-type),rtN236T mutant HBV; [12],8.6 fold
"C[C@H](Cn1cnc2c(N)ncnc21)OCP(=O)(O)O [Tenofovir, tenofovir]",IC50,[4]; [13],130 nM
same,IC50 Fold Change (rtN236T/Wild-type),rtN236T mutant HBV; [12],4.2 fold
same,IC50,rtN236T mutant HBV; [14],550 nM
Nc1ncnc2c1ncn2CCOCP(=O)(O)OP(=O)(O)OP(=O)(O)O [adefovir diphosphate],Ki,[9],100 nM
